Counter-ions that a name gives are not always drawn.
Columns and labels:
L6-myotubes [1] = experiment: Glucose uptake in differentiated L6-myotubes (3H-2-deoxyglucose), compared to isoproterenol; assay type: cell-based; details: agonist 1×10^−5 M, 50 nM 3H-2-deoxyglucose; for Emax at 10 µM: read-out: Biological example 1: glucose uptake, activity compared to that of isoproterenol
Procedure: (§1) L6-myoblasts were grown in Dulbecco's Modified Eagle's Medium (DMEM) containing 1 g/L glucose supplemented with 10% fetal bovine serum, 2 mM L-Glutamine, 50 U/mL penicillin, 50 μg/mL streptomycin and 10 mM HEPES. Cells were plated at 1×10^5 cells per mL in 24-well plates. After reaching 90% confluence the cells were grown in medium containing 2% FBS for 7 days where upon cells differentiated into myotubes.
Differentiated L6-myotubes were serum-starved overnight in medium containing 0.5% fatty-acid free BSA and stimulated with an agonist, with a final concentration of 1×10^−5 M. After 1 h 40 min the cells were washed with warm glucose free medium or PBS twice and another portion of agonist was added to the glucose free medium. After 20 min the cells were exposed to 50 nM ^3H-2-deoxyglucose for 10 min before washed with ice cold glucose free medium or PBS three times and lysed with 0.2 M NaOH, 400 μL/well, for 1 h at 60° C. The cell lysate was mixed with 4 mL scintillation buffer (Emulsifier Safe, Perkin Elmer) and the radioactivity was detected in a β-counter (Tri-Carb 4810TR, Perkin Elmer). The activity for each compound is compared to that of isoproterenol.

L6-myotubes [2] = experiment: Measurement of intracellular cAMP levels in differentiated L6 cells (alpha screen cAMP kit), compared to isoproterenol; assay type: cell-based; details: agonist 1×10^−5 M, 15 min; for Emax at 10 µM: Rattus norvegicus, L6, 0.25 h, read-out: Biological example 2: intracellular cAMP levels, activity compared to that of isoproterenol
Procedure: as §1
Differentiated cells were serum-starved overnight and stimulated with an agonist, final concentration 1×10^−5 M, for 15 min in stimulation buffer (HBSS supplemented with 1% BSA, 5 mM HEPES and 1 mM IBMX, pH 7.4). The medium was aspirated and 100 μL of 95% EtOH was added to each well of the 24-well plate and cells were kept at −20° C. overnight. The EtOH was allowed to evaporate and 500 μL of lysis buffer (1% BSA, 5 mM HEPES and 0.3% Tween-20, pH 7.4) was added to each well. The plate was kept at −80° C. for 30 min and then at −20° C. until the day of detection when the samples were thawed. Intracellular cAMP levels were detected using an alpha screen cAMP kit (6760635D from Perkin Elmer). The activity for each compound is compared to that of isoproterenol.

CO[C@@H]1CCC[C@H](C(C)(C)NC[C@H](O)c2cccc(F)c2)C1 (single isomer, unassigned) [Example 119]
Biological example 1: glucose uptake, activity compared to that of isoproterenol (L6-myotubes [1]): + + +
Emax at 10 µM (L6-myotubes [2]): < 25%

CO[C@H]1CCC[C@@H](C(C)(C)NC[C@H](O)c2cccc(F)c2)C1 (single isomer, unassigned) [Example 120]
Biological example 1: glucose uptake, activity compared to that of isoproterenol (L6-myotubes [1]): + + +
Emax at 10 µM (L6-myotubes [2]): < 25%

CO[C@@H]1CCC[C@H](C(C)(C)NC[C@H](O)c2cncc(F)c2)C1 (single isomer, unassigned) [Example 121]
Biological example 1: glucose uptake, activity compared to that of isoproterenol (L6-myotubes [1]): + +
Emax at 10 µM (L6-myotubes [2]): < 25%

CO[C@H]1CCC[C@@H](C(C)(C)NC[C@H](O)c2cncc(F)c2)C1 (single isomer, unassigned) [Example 122]
Biological example 1: glucose uptake, activity compared to that of isoproterenol (L6-myotubes [1]): + + +
Biological example 2: intracellular cAMP levels, activity compared to that of isoproterenol (L6-myotubes [2]): + +

CO[C@H]1CC[C@@H](CNC[C@H](O)c2cccc(F)c2)CC1 [Example 1, (R)-1-(3-Fluorophenyl)-2-((((1s,4S)-4-methoxycyclohexyl)-methyl)amino)ethan-1-ol]
Biological example 1: glucose uptake, activity compared to that of isoproterenol (L6-myotubes [1]): + +
Emax at 10 µM (L6-myotubes [2]): < 25%

CO[C@H]1CC[C@@H](CNC[C@H](O)c2cncc(F)c2)CC1 [Example 2, (R)-1-(5-Fluoropyridin-3-yl)-2-((((1s,4S)-4-methoxycyclohexyl)-methyl)amino)ethan-1-ol]
Biological example 1: glucose uptake, activity compared to that of isoproterenol (L6-myotubes [1]): + +
Emax at 10 µM (L6-myotubes [2]): < 25%

CO[C@H]1CC[C@H](CNC[C@H](O)c2cccc(F)c2)CC1 [Example 3, (R)-1-(3-Fluorophenyl)-2-((((1r,4R)-4-methoxycyclohexyl)methyl)amino)-ethan-1-ol]
Biological example 1: glucose uptake, activity compared to that of isoproterenol (L6-myotubes [1]): + +
Emax at 10 µM (L6-myotubes [2]): < 25%

CO[C@H]1CC[C@H](CNC[C@H](O)c2cncc(F)c2)CC1 [Example 4, (R)-1-(5-Fluoropyridin-3-yl)-2-((((1r,4R)-4-methoxycyclohexyl)-methyl)amino)ethan-1-ol]
Biological example 1: glucose uptake, activity compared to that of isoproterenol (L6-myotubes [1]): + +
Emax at 10 µM (L6-myotubes [2]): < 25%

CO[C@H]1CC[C@@H](C(C)(C)NC[C@H](O)c2cccc(F)c2)CC1 [Example 5, (R)-1-(3-Fluorophenyl)-2-((2-((1s,4S)-4-methoxycyclohexyl)propan-2-yl)-amino)ethan-1-ol]
Emax at 10 µM (L6-myotubes [1]): < 25%
Emax at 10 µM (L6-myotubes [2]): < 25%

CO[C@H]1CC[C@@H](C(C)(C)NC[C@H](O)c2cncc(F)c2)CC1 [Example 6, (R)-1-(5-fluoropyridin-3-yl)-2-((2-((1s,4S)-4-methoxycyclohexyl)propan-2-yl)amino)ethan-1-ol]
Emax at 10 µM (L6-myotubes [1]): < 25%
Emax at 10 µM (L6-myotubes [2]): < 25%

CO[C@H]1CC[C@H](C(C)(C)NC[C@H](O)c2cccc(F)c2)CC1 [Example 7]
Biological example 1: glucose uptake, activity compared to that of isoproterenol (L6-myotubes [1]): + + +
Emax at 10 µM (L6-myotubes [2]): < 25%

CO[C@H]1CC[C@H](C(C)(C)NC[C@H](O)c2cncc(F)c2)CC1 [Example 8, (R)-1-(5-Fluoropyridin-3-yl)-2-((2-((1r,4R)-4-methoxycyclohexyl)propan-2-yl)amino)ethan-1-ol]
Biological example 1: glucose uptake, activity compared to that of isoproterenol (L6-myotubes [1]): + + +
Emax at 10 µM (L6-myotubes [2]): < 25%

CO[C@H]1CC[C@@H](CCNC[C@H](O)c2cccc(F)c2)CC1 [Example 9, (R)-1-(3-Fluorophenyl)-2-((2-((1s,4S)-4-methoxycyclohexyl)ethyl)amino)-ethan-1-ol]
Biological example 1: glucose uptake, activity compared to that of isoproterenol (L6-myotubes [1]): + +
Emax at 10 µM (L6-myotubes [2]): < 25%

CO[C@H]1CC[C@@H](CCNC[C@H](O)c2cncc(F)c2)CC1 [Example 10, (R)-1-(5-Fluoropyridin-3-yl)-2-((2-((1s,4S)-4-methoxycyclohexyl)ethyl)-amino)ethan-1-ol]
Biological example 1: glucose uptake, activity compared to that of isoproterenol (L6-myotubes [1]): + + +
Emax at 10 µM (L6-myotubes [2]): < 25%

CO[C@H]1CC[C@H](CCNC[C@H](O)c2cccc(F)c2)CC1 [Example 11, (R)-1-(3-Fluorophenyl)-2-((2-((1r,4R)-4-methoxycyclohexyl)ethyl)amino)-ethan-1-ol]
Emax at 10 µM (L6-myotubes [1]): 25 to 50%
Emax at 10 µM (L6-myotubes [2]): < 25%

CO[C@H]1CC[C@H](CCNC[C@H](O)c2cncc(F)c2)CC1 [Example 12, (R)-1-(5-Fluoropyridin-3-yl)-2-((2-((1r,4R)-4-methoxycyclohexyl)ethyl)-amino)ethan-1-ol]
Biological example 1: glucose uptake, activity compared to that of isoproterenol (L6-myotubes [1]): + +
Emax at 10 µM (L6-myotubes [2]): < 25%

CO[C@H]1CC[C@@H](CC(C)(C)NC[C@H](O)c2cccc(F)c2)CC1 [Example 13, (R)-1-(3-Fluorophenyl)-2-((1-((1s,4S)-4-methoxycyclohexyl)-2-methyl-propan-2-yl)amino)ethan-1-ol]
Biological example 1: glucose uptake, activity compared to that of isoproterenol (L6-myotubes [1]): + + +
Emax at 10 µM (L6-myotubes [2]): < 25%

CO[C@H]1CC[C@@H](CC(C)(C)NC[C@H](O)c2cncc(F)c2)CC1 [Example 14, (R)-1-(5-Fluoropyridin-3-yl)-2-((1-((1s,4S)-4-methoxycyclohexyl)-2-methylpropan-2-yl)amino)ethan-1-ol]
Biological example 1: glucose uptake, activity compared to that of isoproterenol (L6-myotubes [1]): + + +
Emax at 10 µM (L6-myotubes [2]): < 25%

CO[C@H]1CC[C@H](CC(C)(C)NC[C@H](O)c2cccc(F)c2)CC1 [Example 15, (R)-1-(3-Fluorophenyl)-2-((1-((1r,4R)-4-methoxycyclohexyl)-2-methyl-propan-2-yl)amino)ethan-1-ol]
Biological example 1: glucose uptake, activity compared to that of isoproterenol (L6-myotubes [1]): + + +
Emax at 10 µM (L6-myotubes [2]): < 25%

CO[C@H]1CC[C@H](CC(C)(C)NC[C@H](O)c2cncc(F)c2)CC1 [Example 16, (R)-1-(5-Fluoropyridin-3-yl)-2-((1-((1r,4R)-4-methoxycyclohexyl)-2-methyl-propan-2-yl)amino)ethan-1-ol]
Biological example 1: glucose uptake, activity compared to that of isoproterenol (L6-myotubes [1]): + +
Emax at 10 µM (L6-myotubes [2]): < 25%

COC1CCC(CCCNC[C@H](O)c2cccc(F)c2)CC1 (stereo partly drawn) [Example 17, (R)-1-(3-Fluorophenyl)-2-((3-((1r,4S)-4-methoxycyclohexyl)propyl)-amino)ethan-1-ol]
Emax at 10 µM (L6-myotubes [1]): 25 to 50%
Emax at 10 µM (L6-myotubes [2]): < 25%

COC1CCC(CCCNC[C@H](O)c2cncc(F)c2)CC1 (stereo partly drawn) [Example 18, (R)-1-(5-Fluoropyridin-3-yl)-2-((3-((1r,4S)-4-methoxycyclohexyl)propyl)-amino)ethan-1-ol]
Emax at 10 µM (L6-myotubes [1]): < 25%
Emax at 10 µM (L6-myotubes [2]): < 25%

CO[C@H]1CC[C@@H](CCCNC[C@H](O)c2cccc(F)c2)CC1 [Example 19, (R)-1-(3-Fluorophenyl)-2-((3-((1s,4R)-4-methoxycyclohexyl)propyl)amino)-ethan-1-ol]
Biological example 1: glucose uptake, activity compared to that of isoproterenol (L6-myotubes [1]): + + +
Biological example 2: intracellular cAMP levels, activity compared to that of isoproterenol (L6-myotubes [2]): + +

CO[C@H]1CC[C@@H](CCCNC[C@H](O)c2cncc(F)c2)CC1 [Example 20, (R)-1-(5-Fluoropyridin-3-yl)-2-((3-((1s,4R)-4-methoxycyclohexyl)propyl)-amino)ethan-1-ol]
Biological example 1: glucose uptake, activity compared to that of isoproterenol (L6-myotubes [1]): + + +
Emax at 10 µM (L6-myotubes [2]): < 25%

CO[C@H]1CC[C@H](CCC(C)(C)NC[C@H](O)c2cccc(F)c2)CC1.Cl [Example 21, (R)-1-(3-Fluorophenyl)-2-((4-((1r,4S)-4-methoxycyclohexyl)-2-methyl-butan-2-yl)amino)ethan-1-ol hydrochloride]
Biological example 1: glucose uptake, activity compared to that of isoproterenol (L6-myotubes [1]): + +
Emax at 10 µM (L6-myotubes [2]): < 25%

COC1CCC(CCC(C)(C)NC[C@H](O)c2cncc(F)c2)CC1 (stereo partly drawn) [Example 22, (R)-1-(5-Fluoropyridin-3-yl)-2-((4-((1r,4S)-4-methoxycyclohexyl)-2-methylbutan-2-yl)amino)ethan-1-ol dihydrochloride]
Emax at 10 µM (L6-myotubes [1]): 25 to 50%
Emax at 10 µM (L6-myotubes [2]): < 25%

CO[C@H]1CC[C@@H](CCC(C)(C)NC[C@H](O)c2cccc(F)c2)CC1.Cl [Example 23, (R)-1-(3-Fluorophenyl)-2-((4-((1s,4R)-4-methoxycyclohexyl)-2-methylbutan-2-yl)amino)ethan-1-ol hydrochloride]
Biological example 1: glucose uptake, activity compared to that of isoproterenol (L6-myotubes [1]): + + +
Emax at 10 µM (L6-myotubes [2]): 25 to 50%

COC(=O)[C@H]1CC[C@@H](C(C)(C)NC[C@H](O)c2cccc(F)c2)CC1 [Example 95, Methyl (1S,4s)-4-(2-(((R)-2-(3-Fluorophenyl)-2-hydroxyethyl)amino)-propan-2-yl)cyclohexane-1-carboxylate]
Biological example 1: glucose uptake, activity compared to that of isoproterenol (L6-myotubes [1]): + + +

COC(=O)[C@H]1CC[C@@H](C(C)(C)NC[C@H](O)c2cncc(F)c2)CC1 [Example 96, Methyl (1S,4s)-4-(2-(((R)-2-(5-Fluoropyridin-3-yl)-2-hydroxyethyl)amino)-propan-2-yl)cyclohexane-1-carboxylate]
Biological example 1: glucose uptake, activity compared to that of isoproterenol (L6-myotubes [1]): + +

Reference: patent publication US20240390298A1, “CYCLOHEXYL BETA-HYDROXY ALKYL AMINES AND MEDICAL USES THEREOF” (ATROGI AB, priority 2021, published 2024)
